Assays:
[1] = Protein binding in human plasma; type: ADME, cell-free; details: read-out: PPB (converted)
[2] = biological target: T1, C-C chemokine receptor type 4 (Homo sapiens, UniProt P51679); assay: Antagonist activity at recombinant human CCR4 expressed in CHO-K1 cells assessed as inhibition of CCL22 induced Ca2+ mobilization after 2 hrs by FMAT based fluorescence assay; type: functional, cell-based
T1 sequence (P51679 whole entry): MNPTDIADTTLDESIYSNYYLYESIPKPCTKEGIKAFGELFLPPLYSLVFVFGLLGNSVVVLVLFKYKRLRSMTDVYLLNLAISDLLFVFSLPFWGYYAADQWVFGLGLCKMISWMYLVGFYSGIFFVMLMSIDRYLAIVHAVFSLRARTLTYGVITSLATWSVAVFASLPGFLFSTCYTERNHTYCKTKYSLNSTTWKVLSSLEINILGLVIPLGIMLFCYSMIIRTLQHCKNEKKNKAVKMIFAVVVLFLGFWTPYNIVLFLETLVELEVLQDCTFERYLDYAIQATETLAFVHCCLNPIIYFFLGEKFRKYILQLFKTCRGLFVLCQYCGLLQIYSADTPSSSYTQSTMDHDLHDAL

[3] = Lipophilicity, log P of the compound; type: physicochemical; details: octanol/water
[4] = biological target: T2, C-C chemokine receptor type 4 (Homo sapiens) (UniProt P51679); assay: Antagonist activity at recombinant human CCR4 expressed in CHO-K1 cells assessed as inhibition of CCL22 induced Ca2+ mobilization at 10 uM after 2 hrs by FMAT based fluorescence assay relative to control; type: functional, cell-based
T2 sequence (whole entry): T1 sequence (P51679 whole entry)

Structure (SMILES): O=S(=O)(Nc1ncc(Cl)nc1OCc1cccc(Br)c1)c1cccc(Cl)c1Cl
- fraction unbound [1]: < 0.001
- IC50 [2]: 3.98 nM

Structure (SMILES): COc1nc(Br)cnc1NS(=O)(=O)c1ccc(Cl)cc1Cl
- IC50 [2]: 126 nM

Structure (SMILES): C#CCOc1nc(Cl)cnc1NS(=O)(=O)c1cccc(Cl)c1Cl
- IC50 [2]: 2.51 nM

Structure (SMILES): COc1nc(Br)cnc1NS(=O)(=O)c1cccs1
- IC50 [2]: 631 nM

Structure (SMILES): COc1nc(Br)cnc1NS(=O)(=O)c1cc(Cl)c(Cl)s1
- IC50 [2]: 1000 nM

Structure (SMILES): COc1nccnc1NS(=O)(=O)c1scc(Cl)c1Cl
- logP [3]: 2.8
- fraction unbound [1]: 0.025
- IC50 [2]: 20 nM

Structure (SMILES): COc1nc(Cl)cnc1NS(=O)(=O)c1cccc(Cl)c1C
- IC50 [2]: 20 nM

Structure (SMILES): CSc1nc(Br)cnc1NS(=O)(=O)c1ccc(Cl)s1
- IC50 [2]: 3160 nM

Structure (SMILES): COc1nc(Br)cnc1NS(=O)(=O)c1sccc1-c1ccccc1
- IC50 [2]: 1000 nM

Structure (SMILES): CCOc1nc(Br)cnc1NS(=O)(=O)c1ccc(Cl)s1
- IC50 [2]: 200 nM

Structure (SMILES): CC(C)(C)COc1nc(Cl)cnc1NS(=O)(=O)c1cccc(Cl)c1Cl
- IC50 [2]: 7940 nM

Structure (SMILES): COc1nc(Cl)cnc1NS(=O)(=O)c1cccc(Cl)c1Cl
- logP [3]: 4.1
- fraction unbound [1]: < 0.001

Structure (SMILES): CNc1nc(Br)cnc1NS(=O)(=O)c1ccc(Cl)s1
- inhibition [4]: 44%
- IC50 [2]: > 10000 nM

Structure (SMILES): COc1nc(CO)c(Cl)nc1NS(=O)(=O)c1cccc(Cl)c1Cl
- logP [3]: 3.2
- fraction unbound [1]: 0.004
- IC50 [2]: 3.98 nM

Structure (SMILES): COc1nc(Br)cnc1NS(=O)(=O)c1c(Cl)cccc1Cl
- IC50 [2]: 631 nM

Structure (SMILES): COc1nc(Br)cnc1NS(=O)(=O)c1cccc(Cl)c1
- IC50 [2]: 100 nM

Structure (SMILES): C=CCOc1nc(Cl)cnc1NS(=O)(=O)c1cccc(Cl)c1Cl
- IC50 [2]: 15.8 nM

Structure (SMILES): COc1nc(Cl)cnc1NS(=O)(=O)c1cccc(F)c1Cl
- IC50 [2]: 15.8 nM

Structure (SMILES): COc1nc(CO)c(C)nc1NS(=O)(=O)c1cccc(Cl)c1Cl
- logP [3]: 2.4
- fraction unbound [1]: 0.013
- IC50 [2]: 39.8 nM

Structure (SMILES): COc1nc(Br)cnc1NS(=O)(=O)c1ccc(Cl)c(Cl)c1
- IC50 [2]: 200 nM

Structure (SMILES): COc1nc(Br)cnc1NS(=O)(=O)c1ccsc1
- IC50 [2]: 1260 nM

Structure (SMILES): COc1ncc(Cl)nc1NS(=O)(=O)c1cccc(Cl)c1Cl
- logP [3]: 4.5
- fraction unbound [1]: < 0.001
- IC50 [2]: 7.94 nM

Structure (SMILES): COc1nc(CO)cnc1NS(=O)(=O)c1cccc(Cl)c1Cl
- logP [3]: 2.1
- fraction unbound [1]: 0.038
- IC50 [2]: 25.1 nM

Structure (SMILES): COc1nc(Cl)cnc1NS(=O)(=O)c1cccc(Cl)c1F
- IC50 [2]: 79.4 nM

Structure (SMILES): COc1nc(Br)cnc1NS(=O)(=O)c1cc(Cl)ccc1Cl
- IC50 [2]: 3160 nM

Structure (SMILES): COc1nc(Br)cnc1NS(=O)(=O)c1sc(Cl)cc1Br
- IC50 [2]: 39.8 nM

Structure (SMILES): COc1nc(C)cnc1NS(=O)(=O)c1cccc(Cl)c1Cl
- logP [3]: 3
- fraction unbound [1]: 0.0035
- IC50 [2]: 39.8 nM

Structure (SMILES): COc1ncc(F)nc1NS(=O)(=O)c1cccc(Cl)c1Cl
- logP [3]: 3.3
- fraction unbound [1]: < 0.002
- IC50 [2]: 3.98 nM

Structure (SMILES): COc1nc(Cl)cnc1NS(=O)(=O)c1cccc(C(F)(F)F)c1Cl
- IC50 [2]: 63.1 nM

Structure (SMILES): CCOc1cnc(NS(=O)(=O)c2cccc(Cl)c2Cl)c(OC)n1
- logP [3]: 4.1
- fraction unbound [1]: < 0.001
- IC50 [2]: 12.6 nM

Structure (SMILES): O=S(=O)(Nc1ncc(Cl)nc1OCc1cncnc1)c1cccc(Cl)c1Cl
- fraction unbound [1]: < 0.001
- IC50 [2]: 12.6 nM

Structure (SMILES): COc1nc(Cl)cnc1NS(=O)(=O)c1cccc(Cl)c1C#N
- IC50 [2]: 63.1 nM

Structure (SMILES): COc1nc(Br)cnc1NS(=O)(=O)c1ccccc1Cl
- IC50 [2]: 158 nM

Structure (SMILES): COc1nc(Br)cnc1NS(=O)(=O)c1ccccc1
- IC50 [2]: 794 nM

Structure (SMILES): O=S(=O)(Nc1ncc(Cl)nc1OCc1ccccc1CO)c1cccc(Cl)c1Cl
- fraction unbound [1]: < 0.001

Structure (SMILES): CCc1nc(Br)cnc1NS(=O)(=O)c1ccc(Cl)s1
- IC50 [2]: 5010 nM

Structure (SMILES): COc1nc(S(C)(=O)=O)cnc1NS(=O)(=O)c1cccc(Cl)c1Cl
- IC50 [2]: 5010 nM

Structure (SMILES): COc1nc(F)c(F)nc1NS(=O)(=O)c1cccc(Cl)c1Cl
- fraction unbound [1]: < 0.002
- IC50 [2]: 1 nM

Structure (SMILES): COc1ncc(C)nc1NS(=O)(=O)c1cccc(Cl)c1Cl
- fraction unbound [1]: < 0.002
- IC50 [2]: 50.1 nM

Structure (SMILES): COc1nc(Cl)cnc1NS(=O)(=O)c1ccnc(Cl)c1Cl
- IC50 [2]: 10000 nM

Structure (SMILES): COc1nc(Br)cnc1NS(=O)(=O)c1cccc(Cl)c1Cl
- fraction unbound [1]: < 0.001
- IC50 [2]: 10 nM

Structure (SMILES): COc1nc(Br)cnc1NS(=O)(=O)c1cc(Cl)cc(Cl)c1
- IC50 [2]: 5010 nM

Structure (SMILES): COc1nc(Br)cnc1NS(=O)(=O)c1ccc(Cl)cc1
- IC50 [2]: 126 nM

Structure (SMILES): COc1nc(Cl)cnc1NS(=O)(=O)c1scc(Cl)c1Cl
- IC50 [2]: 7.94 nM

Structure (SMILES): CCCCS(=O)(=O)Nc1ncc(Cl)nc1OC
- IC50 [2]: 3160 nM

Structure (SMILES): O=S(=O)(Nc1ncc(Cl)nc1OCc1cccnc1)c1cccc(Cl)c1Cl
- fraction unbound [1]: < 0.001
- IC50 [2]: 0.631 nM
